For assay [1], the system named is HeLa. Nature of the assay: Cytotoxicity against human HeLa cells after 72 hrs by MTT assay. In kind it is functional, cell-based.
Assay [2] has as its system K562. Briefly: Cytotoxicity against human K562 cells after 72 hrs by MTT assay. The assay is classed as functional, cell-based. As to conditions: K562, 72 h.
A short description of assay [3]: Cytotoxicity against human Fem-X cells after 72 hrs by MTT assay. In kind it is functional, cell-based.
The test system of assay [4] is PBMC. Nature of the assay: Cytotoxicity against human PBMC cells in presence of phytohemagglutinin after 72 hrs by MTT assay. The assay is classed as cell-based.
Assay [5] concerns PBMC. Briefly: Cytotoxicity against human PBMC cells in absence of phytohemagglutinin after 72 hrs by MTT assay. In kind it is cell-based.
Where [6] appears, read: Homo sapiens, HeLa, 72 h, read-out: IC50.

Take `COc1ccc(Nc2ccc3ccccc3n2)cc1`: the IC50 amounted to 51 µM in assay [1] (setting [6]); 30 µM in assay [2]; 43 µM in assay [3]; 70 µM in assay [4]; 91 µM in assay [5].

For `COc1ccc(Nc2cc(-c3ccc(C)cc3)ccn2)cc1`, the IC50 stood at 43 µM in assay [1] (setting [6]); 19 µM in assay [2]; 33 µM in assay [3]; 34 µM in assay [4]; 52 µM in assay [5].

On to `COc1ccc(Nc2cc(-c3cccc(C(F)(F)F)c3)ccn2)cc1`, for which the IC50 in assay [1] (setting [6]) is 140 µM; in assay [2], 78 µM; in assay [3], 68 µM; in assay [4], 105 µM; in assay [5] it was 132 µM.

For `CCc1ccc(Nc2cc(-c3cccc(C(F)(F)F)c3)ccn2)cc1`, the IC50 in assay [1] (setting [6]) and in assay [3] was above 200 µM throughout.

With `COc1cccc(Nc2cc(-c3cccc(C(F)(F)F)c3)ccn2)c1`, the IC50 in assay [1] (setting [6]) and in assay [3] was above 200 µM throughout.

With `COc1ccc(Nc2ccccn2)cc1`, the IC50 in assay [1] (setting [6]) stood at 117 µM; in assay [2], 63 µM; in assay [3] it was 123 µM; in assay [4], 42 µM; in assay [5], 46 µM.

For `COc1ccc(Nc2cccnc2)cc1`, the IC50 in assay [1] (setting [6]) was determined as 145 µM; in assay [2] it was 68 µM; in assay [3], 118 µM; in assay [4], 183 µM; in assay [5] it was 96 µM.

As for `Cc1ccc(-c2ccnc(Nc3ccc(F)cc3)c2)cc1`, the IC50 in assay [1] (setting [6]) is 146 µM; in assay [2], 54 µM; in assay [3] it was 79 µM; in assay [4], 146 µM; in assay [5], 127 µM.

For the compound `Fc1ccc(Nc2ccc3ccccc3n2)cc1`, the IC50 came out at 33 µM in assay [1] (setting [6]); 36 µM in assay [2]; 35 µM in assay [3]; 65 µM in assay [4]; 90 µM in assay [5].

For the compound `COc1ccc(Nc2nc3ccccc3cc2-c2ccc(C)cc2)cc1`, the IC50 in assay [1] (setting [6]) came to 102 µM; in assay [2], 75 µM; in assay [3], 65 µM; in assay [4], 118 µM; in assay [5], 137 µM.

Take `COc1ccc(Nc2c(-c3ccc(OC)cc3)cnc3ccccc23)cc1`: the IC50 in assay [1] (setting [6]) amounted to 104 µM; in assay [2] it was 25 µM; in assay [3], 56 µM; in assay [4], 105 µM; in assay [5], 122 µM.

`COc1ccc(Nc2c(-c3ccccc3)cnc3ccccc23)cc1`: the IC50 was 64 µM in assay [1] (setting [6]); 25 µM in assay [2]; 35 µM in assay [3]; 62 µM in assay [4]; 72 µM in assay [5].

For `COc1cccc(Nc2nc3ccccc3cc2-c2ccccc2)c1`, the IC50 result in assay [1] (hela) is “ND(toxic)”; in assay [2] it was 76 µM; in assay [3], 129 µM; in assay [4], 81 µM; in assay [5], 119 µM.

`CCc1ccc(Nc2nc3ccccc3cc2-c2ccccc2)cc1`: the 50% inhibitory concentration (IC50) amounted to 140 µM in assay [1] (setting [6]); 99 µM in assay [2]; 92 µM in assay [3]; 66 µM in assay [4]; 73 µM in assay [5].

Source of the values: ChEMBL document CHEMBL2069279, “Target fishing and docking studies of the novel derivatives of aryl-aminopyridines with potential anticancer activity” (Bioorg Med Chem, 2012).
